Laboratory results published in patent US7855294B2, “Cycloalkanopyridine derivative” (Banyu Pharmaceutical Co., Ltd., priority 2004, dated 2010).
Counter-ions that a name gives are not always drawn.

Assays:
[1] = target: T1, nociceptin receptor ORL1 (Homo sapiens, UniProt P41146); test: Nociceptin receptor binding inhibition assay ([125I]Tyr14-Nociceptin, CHO/ORL1 membrane fractions, SPA beads); design: expressed in transfected cells; membrane fractions
Method: A cDNA that codes for a human nociceptin receptor gene was cloned into an expression vector pCR3 (by Invitrogen) to prepare pCR3/ORL1. Next, pCR3/ORL1 was transfected in CHO cells using a transfectam (by Nippongene) to obtain a stable expression strain (CHO/ORL1 cells) having resistance against 1 mg/ml G418. Membrane fractions were prepared from this stable expression strain to carry out a receptor binding assay. 11 μg of the membrane fraction, 50 pM [^125I]Tyr^14-Nociceptin (by Amersham Pharmacia), 1 mg of wheat germ agglutinin SPA beads (PVT based, by Amersham Pharmacia) and each test compound were suspended in an NC buffer (50 mM Hepes, 10 mM sodium chloride, 1 mM magnesium chloride, 2.5 mM calcium chloride, 0.1% BSA, 0.025% bacitracin, pH 7.4) and incubated at 37° C. for 60 minutes, and then the radioactivity of the culture was determined.

[2] = target: T1, nociceptin receptor ORL1; test: Antagonism against nociceptin-elicited G protein activation (GTPγ[35S] binding, CHO/ORL1 membrane); format: biochemical; design: expressed in transfected cells; membrane preparation
Method: CHO cells which stably expressed a nociceptin receptor ORL1 were used to investigate the action of each test compound against nociceptin-elicited G protein activation. A membrane prepared from the CHO/ORL1 cells, 50 nM nociceptin, 200 pM GTPγ[^35S] (by NEN), 1.5 mg of wheat germ agglutinin SPA beads (by Amersham Pharmacia) and each test compound were mixed in a GDP buffer (20 mM Hepes, 100 mM sodium chloride, 10 mM magnesium chloride, 1 mM EDTA, 5 μM GDP, pH 7.4) and incubated at 25° C. for 150 minutes, and then the radioactivity of the culture was determined.

[3] = test system: male ICR (CD-1) mice; test: Antagonism test: hypokinesis (suppression of motion) induced by a nociceptin agonist; format: in vivo; settings: test compound 1 to 10 mg/kg and nociceptin agonist 1 mg/kg hypodermically; motion for 60 minutes; difference between agonist group and solvent control group set to 100%
Method: Using male ICR (CD-1) mice (weighing 20 to 40 g), antagonism to hypokinesis (suppression of motion) induced by a nociceptin agonist was observed. That is, the quantity of motion of each mouse in a 20 cm×30 cm×20 cm cage was measured with an infrared sensor. The test compound (1 to 10 mg/kg) as dissolved in either 0.5% methyl cellulose liquid or a solvent, and a nociceptin agonist (1 mg/kg) were administered to the test mice hypodermically, and the quantity of their motion for 60 minutes was measured. To the control group mice, the solvent only was administered. The evaluation was made by representing the quantity of motion of the mice administered with the test compound by percent, where the difference in the quantity of motion between the nociceptin agonist-administered group and that of the solvent-administered control group during the test time was set to be 100%.

T1 sequence (P41146 whole entry): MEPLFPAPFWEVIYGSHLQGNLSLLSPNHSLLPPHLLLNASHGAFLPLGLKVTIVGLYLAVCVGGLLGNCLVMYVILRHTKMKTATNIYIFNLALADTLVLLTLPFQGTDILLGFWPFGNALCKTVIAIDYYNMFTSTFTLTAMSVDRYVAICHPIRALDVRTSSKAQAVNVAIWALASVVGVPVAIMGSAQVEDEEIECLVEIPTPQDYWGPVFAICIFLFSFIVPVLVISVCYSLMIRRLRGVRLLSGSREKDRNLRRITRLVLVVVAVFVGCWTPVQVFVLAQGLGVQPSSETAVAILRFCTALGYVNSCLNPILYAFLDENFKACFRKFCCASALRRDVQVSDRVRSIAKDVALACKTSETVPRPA

| Structure (SMILES) | IC50 [1] | IC50 [2] | Quantity of Motion (%) [3] | IC50 ([1]; read-out: IC50 value) | melting point |
| --- | --- | --- | --- | --- | --- |
| CC1(C)OC2(CC3CCC(C2)N3C[C@@H]2Cc3cccnc3[C@@H](O)C2)c2cnc(F)cc21 (stereo partly drawn) [Example 70, (6R,8S)-6-[(5′-fluoro-3′,3′-dimethyl-3′H-6′-azaspiro[8-azabicyclo[3.2.1]octane-3,1′-isobenzofuran]-8-yl)methyl]-5,6,7,8-tetrahydroquinolin-8-ol mono-L-tartrate] | 0.39 nM | 0.32 nM | – | – | – |
| O[C@H]1C[C@H](CN2C3CCC2CC2(C3)OCc3cc(F)ncc32)CCc2cccnc21 (stereo partly drawn) [Example 23, (7R,9S)-7-(6′-aza-5′-fluoro-spiro[8-aza-bicyclo[3.2.1]-octa-3,1′(3′H)-isobenzofuran]-8-ylmethyl)-6,7,8,9-tetrahydro-5H-cyclohepta[b]pyridin-9-ol mono-L-tartrate] | 0.53 nM | 1.2 nM | – | – | – |
| Cc1cc(F)ccc1[C@H]1CCN(C[C@@H]2CCc3cccnc3[C@@H](O)C2)C[C@@H]1O (single isomer, unassigned) [Example 17, (7R,9S)-7-[(3R*,4R*)-(4-fluoro-o-tolyl)-3-hydroxypiperidin-1-ylmethyl]-6,7,8,9-tetrahydro-5H-cyclohepta[b]pyridin-9-ol monohydrochloride] | – | – | >75% | – | – |
| Cl.O[C@H]1C[C@H](CN2CC[C@H](c3ccc(F)cc3Cl)[C@@H](O)C2)Cc2cccnc21 [Example 33, (6R,8S)-6-[(3R,4R)-4-(2-chloro-4-fluorophenyl)-3-hydroxypiperidin-1-ylmethyl]-5,6,7,8-tetrahydroquinolin-8-ol monohydrochloride] | – | – | >75% | – | – |
| Cc1ccccc1[C@H]1CCN(C[C@@H]2CCc3cccnc3[C@@H](O)C2)C[C@@H]1O.O=C(O)C(O)C(O)C(=O)O (relative stereo) [Example 16, (7R,9S)-7-[(3R*,4R*)-3-hydroxy-4-o-tolyl-piperidin-1-ylmethyl]-6,7,8,9-tetrahydro-5H-cyclohepta[b]pyridin-9-ol mono-L-tartrate] | – | – | >75% | – | – |
| O[C@H]1C[C@H](CN2C3CCC2CC2(C3)OCc3ccccc32)CCc2cccnc21 (stereo partly drawn) [Example 10, (7R,9S)-7-(spiro[8-aza-bicyclo[3.2.1]octa-3,1′(3′H)-isobenzofuran]-8-ylmethyl)-6,7,8,9-tetrahydro-5H-cyclohepta[b]pyridin-9-ol] | 0.37 nM | 0.08 nM | – | – | – |
| O=C(O)C(O)C(O)C(=O)O.O[C@H]1C[C@H](CN2CCC(F)(c3ccccc3Cl)CC2)Cc2cccnc21 [Example 29, (6R,8S)-6-[4-(2-chlorophenyl)-4-fluoropiperidin-1-ylmethyl]-5,6,7,8-tetrahydroquinolin-8-ol mono-L-tartrate] | – | 4.7 nM | >75% | 4.1 nM | – |
| O[C@H]1C[C@H](CN2C3CCC2CC2(C3)OCc3cc(F)ncc32)CCc2cccnc21 (stereo partly drawn) (as salt: tartrate) [Example 23, (7R,9S)-7-(6′-aza-5′-fluoro-spiro[8-aza-bicyclo[3.2.1]-octa-3,1′(3′H)-isobenzofuran]-8-ylmethyl)-6,7,8,9-tetrahydro-5H-cyclohepta[b]pyridin-9-ol mono-L-tartrate] | – | – | – | – | 133 to 141 °C |
| CC1(C)OC2(CCN(C[C@@H]3Cc4cccnc4[C@@H](O)C3)CC2)c2ccccc21.O=C(O)C(O)C(O)C(=O)O [Example 25, (6R,8S)-6-(3,3-dimethyl-spiro[isobenzofuran-1(3H),4′-piperidin]-1′-ylmethyl)-5,6,7,8-tetrahydro-quinolin-8-ol mono-L-tartrate] | 2.5 nM | 4.2 nM | >75% | – | – |
| Cl.O[C@H]1C[C@H](CN2CC[C@H](c3ccccc3Cl)[C@@H](O)C2)CCc2cccnc21 (relative stereo) [Example 31, (7R,9S)-7-[(3R*,4R*)-4-(2-chlorophenyl)-3-hydroxypiperidin-1-ylmethyl]-6,7,8,9-tetrahydro-5H-cyclohepta[b]pyridin-9-ol monohydrochloride] | – | 2.1 nM | >75% | 6.7 nM | – |
| Cl.O[C@@H]1[C@@H](c2ccc(F)cc2Cl)CC2CC[C@@H]1N2C[C@@H]1Cc2cccnc2[C@@H](O)C1 (relative stereo) [Example 71, (6R,8S)-6-[(1S*,2R*,3R*)-3-(2-chloro-4-fluorophenyl)-2-hydroxy-8-azabicyclo[3.2.1]octan-8-ylmethyl]-5,6,7,8-tetrahydroquinolin-8-ol monohydrochloride] | 1.4 nM | 0.68 nM | – | – | 238 °C (dec.) |
